From the supplement of paper PMC10307832

Assays:
Test in all cases: relative viability (nuclei count vs DMSO), 5 days (fraction); higher = more cells survive
Adavosertib + Dasatinib = compound: C=CCn1c(=O)c2cnc(Nc3ccc(N4CCN(C)CC4)cc3)nc2n1-c1cccc(C(C)(C)O)n1 [Adavosertib] + Cc1nc(Nc2ncc(C(=O)Nc3c(C)cccc3Cl)s2)cc(N2CCN(CCO)CC2)n1 [Dasatinib] (partner 0.075 µM)
Outline: (§1)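 Lung cancer cell lines were seeded in 1536-well plates and dosed by pin tool the next day, with either a single drug or a fixed anchor-drug dose combined with five library-drug doses (not always all listed) spaced in √10 steps. Five days later, one step fixed the cells and stained their nuclei (final 0.05% Triton X-100, 1% formaldehyde, 1 ug/ml Hoechst), and nuclei were counted on 4× images. Relative viability is the nuclei count in treated wells divided by the count in vehicle wells, and each value is the median of duplicate plates.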

Nelarabine + Trametinib = compound: COc1nc(N)nc2c1ncn2[C@@H]1O[C@H](CO)[C@@H](O)[C@@H]1O [Nelarabine] + CC(=O)Nc1cccc(-n2c(=O)n(C3CC3)c(=O)c3c(Nc4ccc(I)cc4F)n(C)c(=O)c(C)c32)c1 [Trametinib] (partner 0.02 µM)
Outline: as §1

Nelarabine + Foretinib = compound: COc1nc(N)nc2c1ncn2[C@@H]1O[C@H](CO)[C@@H](O)[C@@H]1O [Nelarabine] + COc1cc2c(Oc3ccc(NC(=O)C4(C(=O)Nc5ccc(F)cc5)CC4)cc3F)ccnc2cc1OCCCN1CCOCC1 [Foretinib] (partner 0.25 µM)
Outline: as §1

Nelarabine + Pictilisib = compound: COc1nc(N)nc2c1ncn2[C@@H]1O[C@H](CO)[C@@H](O)[C@@H]1O [Nelarabine] + CS(=O)(=O)N1CCN(Cc2cc3nc(-c4cccc5[nH]ncc45)nc(N4CCOCC4)c3s2)CC1 [Pictilisib] (partner 1 µM)
Outline: as §1

Cell Line	relative viability (Adavosertib + Dasatinib; first compound 0.01 µM)	relative viability (Adavosertib + Dasatinib; first compound 0.03162 µM)	relative viability (Adavosertib + Dasatinib; first compound 0.1 µM)	relative viability (Adavosertib + Dasatinib; first compound 0.3162 µM)	relative viability (Nelarabine + Trametinib; first compound 0.01 µM)	relative viability (Nelarabine + Trametinib; first compound 0.03162 µM)	relative viability (Nelarabine + Trametinib; first compound 0.1 µM)	relative viability (Nelarabine + Trametinib; first compound 0.3162 µM)	relative viability (Nelarabine + Trametinib; first compound 1 µM)	relative viability (Nelarabine + Foretinib; first compound 0.01 µM)	relative viability (Nelarabine + Foretinib; first compound 0.03162 µM)	relative viability (Nelarabine + Foretinib; first compound 0.1 µM)	relative viability (Nelarabine + Foretinib; first compound 0.3162 µM)	relative viability (Nelarabine + Foretinib; first compound 1 µM)	relative viability (Nelarabine + Pictilisib; first compound 0.01 µM)	relative viability (Nelarabine + Pictilisib; first compound 0.03162 µM)	relative viability (Nelarabine + Pictilisib; first compound 0.1 µM)	relative viability (Nelarabine + Pictilisib; first compound 0.3162 µM)	relative viability (Nelarabine + Pictilisib; first compound 1 µM)
HCC-366	0.668	0.631	0.736	0.63	0.503	0.37	0.279	0.466	0.327	1.03	0.717	0.942	0.974	0.895	0.165	0.122	0.152	0.196	0.132
HCC-78	0.389	0.44	0.418	0.401	1.19	0.74	–	0.853	0.96	0.607	0.538	–	0.527	0.617	0.156	0.215	–	0.261	0.231
NCI-H358	0.159	0.144	0.149	0.139	0.124	0.14	0.109	0.149	0.123	0.854	0.666	0.622	0.854	0.762	0.374	0.3	0.294	0.362	0.328
NCI-H23	0.737	0.838	0.788	0.412	0.403	0.404	0.343	0.378	0.409	1.13	0.862	0.94	1.09	0.948	0.494	0.499	0.528	0.459	0.51
PC-14	0.281	0.236	0.23	0.057	0.894	0.87	0.766	0.844	0.774	1.04	1.11	1.06	1.02	0.997	1.17	0.759	0.563	0.815	0.653
SW 900	–	0.607	0.645	0.36	0.642	0.778	0.765	0.777	0.753	1.02	0.749	0.934	0.947	0.832	–	–	–	–	–
NCI-H1650	0.306	0.293	0.305	0.216	0.513	0.694	0.462	0.818	0.562	1.13	1.16	1.11	1.37	1.19	0.742	0.666	0.476	0.559	0.591
H3255	0.347	0.382	0.352	0.352	0.713	0.706	0.619	0.651	0.806	–	1.12	0.828	0.938	0.923	0.534	0.494	0.456	0.394	0.477
NCI-H1563	0.462	0.432	0.437	0.466	–	–	–	–	–	0.809	0.967	0.811	0.955	0.905	0.605	0.634	0.641	0.67	0.626
A549	–	–	–	–	–	–	–	–	–	1.11	0.853	0.972	1.01	0.98	0.729	0.546	0.499	0.577	0.463
UMC-11	0.489	0.414	0.517	0.461	0.855	0.659	0.755	0.767	0.843	1.23	0.961	0.963	1.11	0.972	1.05	0.729	0.874	1.02	0.898
LOU-NH91	0.539	0.565	0.622	0.513	0.856	0.731	0.769	0.804	0.794	0.959	0.938	0.932	0.893	0.977	0.515	0.464	0.487	0.527	0.54
NCI-H1299	–	–	–	–	–	–	–	–	–	1.15	1.08	1.13	1.12	1.13	1.06	0.899	0.857	0.861	0.757
HCC-44	–	–	–	–	1.14	1.05	1.01	1.03	0.983	–	–	–	–	–	0.708	0.829	0.569	0.597	0.529
NCI-H1437	0.404	0.323	0.375	0.43	0.637	0.582	0.484	0.64	0.581	1.4	1.18	1.23	1.25	1.15	0.465	0.356	0.373	0.426	0.47
HARA	0.258	0.249	0.283	0.338	0.412	0.703	0.676	0.754	0.718	1	1.07	0.834	1.23	1.03	0.457	0.346	0.336	0.452	0.354
EBC-1	–	–	–	–	–	–	–	–	–	0.122	0.111	0.146	0.0922	0.105	0.372	0.284	0.407	0.329	0.461
NCI-H2085	0.257	0.266	0.229	0.279	0.391	0.518	0.514	0.612	0.544	0.96	1.04	0.76	0.881	1.06	0.462	0.372	0.536	0.46	0.455
NCI-H322M	0.238	0.225	0.247	0.255	0.547	0.505	0.383	0.402	0.511	0.972	0.948	0.816	0.939	0.976	0.505	0.523	0.433	0.568	0.542
